Active and inactive are the calls of the source. The rule behind the calls is not given here.
Legend:
Format in all cases: cell-based
[1] = biological target: T1, Potassium channel subfamily K member 2 (Homo sapiens) (UniProt O95069); assay: Inhibition of human TREK1 R207A mutant at intermediate transition state expressed in CHO cells by whole-cell patch-clamp electrophysiological method
T1 sequence (whole entry): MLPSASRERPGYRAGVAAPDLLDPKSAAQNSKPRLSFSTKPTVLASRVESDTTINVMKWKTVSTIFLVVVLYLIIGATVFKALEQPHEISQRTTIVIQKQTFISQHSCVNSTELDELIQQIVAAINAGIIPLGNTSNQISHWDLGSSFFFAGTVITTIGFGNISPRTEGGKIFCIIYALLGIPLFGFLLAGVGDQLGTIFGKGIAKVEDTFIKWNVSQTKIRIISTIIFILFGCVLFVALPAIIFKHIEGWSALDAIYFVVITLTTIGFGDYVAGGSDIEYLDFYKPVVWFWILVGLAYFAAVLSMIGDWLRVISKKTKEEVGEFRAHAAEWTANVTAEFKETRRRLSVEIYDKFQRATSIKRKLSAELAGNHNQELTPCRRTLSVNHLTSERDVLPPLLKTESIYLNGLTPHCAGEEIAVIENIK

[2] = biological target: T1, Potassium channel subfamily K member 2 (Homo sapiens); assay: Inhibition of human TREK1 at intermediate transition state expressed in CHO cells assessed as decrease in probability of TREK1 channel being in open state by single-channel recordings based by inside-out patch method
[3] = biological target: T1, Potassium channel subfamily K member 2 (Homo sapiens); assay: Effect on channel conductance of human TREK1 expressed in CHO cells by single-channel recordings based by inside-out patch method
[4] = biological target: T1, Potassium channel subfamily K member 2 (Homo sapiens); assay: Inhibition of human TREK1 S290A mutant at intermediate transition state expressed in CHO cells by whole-cell patch-clamp electrophysiological method
[5] = biological target: T2, Potassium channel subfamily K member 4 (Homo sapiens) (UniProt Q9NYG8); assay: Inhibition of human TRAAK at intermediate transition state expressed in CHO cells by whole-cell patch-clamp electrophysiological method
T2 sequence (whole entry): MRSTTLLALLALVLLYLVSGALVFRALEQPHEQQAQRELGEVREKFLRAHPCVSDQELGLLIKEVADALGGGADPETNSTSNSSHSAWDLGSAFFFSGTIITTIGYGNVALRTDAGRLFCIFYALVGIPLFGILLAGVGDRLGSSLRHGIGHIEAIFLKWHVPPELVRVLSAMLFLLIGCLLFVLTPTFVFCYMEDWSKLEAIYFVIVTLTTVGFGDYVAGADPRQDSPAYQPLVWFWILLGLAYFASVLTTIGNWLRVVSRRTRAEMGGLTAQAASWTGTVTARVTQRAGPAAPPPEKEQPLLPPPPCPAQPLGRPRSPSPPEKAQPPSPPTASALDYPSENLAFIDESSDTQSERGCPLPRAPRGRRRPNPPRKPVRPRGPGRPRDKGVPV

[6] = biological target: T1, Potassium channel subfamily K member 2 (Homo sapiens); assay: Inhibition of human TREK1 T211A mutant at intermediate transition state expressed in CHO cells by whole-cell patch-clamp electrophysiological method
[7] = biological target: T1, Potassium channel subfamily K member 2 (Homo sapiens); assay: Inhibition of human TREK1 V288A mutant at intermediate transition state expressed in CHO cells by whole-cell patch-clamp electrophysiological method
[8] = biological target: T3, Potassium channel subfamily K member 10 (Homo sapiens) (UniProt P57789); assay: Inhibition of human TREK2 at intermediate transition state expressed in CHO cells by whole-cell patch-clamp electrophysiological method
T3 sequence (whole entry): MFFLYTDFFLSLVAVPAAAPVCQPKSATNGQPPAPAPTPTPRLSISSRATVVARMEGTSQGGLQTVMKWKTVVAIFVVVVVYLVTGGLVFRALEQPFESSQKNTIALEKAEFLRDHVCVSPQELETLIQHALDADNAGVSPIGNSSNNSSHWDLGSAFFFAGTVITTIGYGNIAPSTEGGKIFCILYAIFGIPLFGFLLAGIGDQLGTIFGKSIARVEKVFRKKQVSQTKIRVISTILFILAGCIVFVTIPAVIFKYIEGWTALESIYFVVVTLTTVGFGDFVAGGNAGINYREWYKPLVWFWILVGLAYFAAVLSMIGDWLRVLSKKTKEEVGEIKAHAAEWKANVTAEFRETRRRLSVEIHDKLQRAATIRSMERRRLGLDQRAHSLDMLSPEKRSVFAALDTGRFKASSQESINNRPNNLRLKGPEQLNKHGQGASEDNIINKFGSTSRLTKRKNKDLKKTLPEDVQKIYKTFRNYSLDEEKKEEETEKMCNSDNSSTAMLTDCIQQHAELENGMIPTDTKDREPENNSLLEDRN

[9] = biological target: T1, Potassium channel subfamily K member 2 (Homo sapiens); assay: Inhibition of human TREK1 in open state expressed in CHO cells in presence of 10 uM TREK1 activator arachidonic acid by whole-cell patch-clamp electrophysiological method
[10] = biological target: T1, Potassium channel subfamily K member 2 (Homo sapiens); assay: Inhibition of human TREK1 M291A mutant at intermediate transition state expressed in CHO cells by whole-cell patch-clamp electrophysiological method
[11] = biological target: T4, Potassium channel subfamily K member 2 (Homo sapiens, UniProt O95069); assay: (§1) Inhibition of human TREK1 at intermediate transition state expressed in CHO cells by whole-cell patch-clamp electrophysiological method
T4 sequence (O95069 whole entry): T1 sequence (whole entry)

[12] = biological target: T1, Potassium channel subfamily K member 2 (Homo sapiens); assay: as §1
[13] = biological target: T1, Potassium channel subfamily K member 2 (Homo sapiens); assay: Inhibition of human TREK1 W295A mutant at intermediate transition state expressed in CHO cells by whole-cell patch-clamp electrophysiological method
[14] = biological target: T1, Potassium channel subfamily K member 2 (Homo sapiens); assay: Inhibition of human TREK1 D294A mutant at intermediate transition state expressed in CHO cells by whole-cell patch-clamp electrophysiological method

SMILES	inhibition [1]	inhibition [2]	Activity [3]	inhibition [4]	inhibition [5]	inhibition [6]	inhibition [7]	inhibition [8]	inhibition [9]	inhibition [10]	IC50 [11] [nM]	inhibition [12]	inhibition [13]	inhibition [14]
CNCCC(Oc1ccc(C(F)(F)F)cc1)c1ccccc1 (stereo unspecified)	inactive	–	–	–	–	–	–	–	–	–	–	–	–	–
O=C(CSc1ccc2ccccc2n1)NNC(=O)c1ccc(Cl)cc1	Active	Active	inactive	Active	inactive	inactive	Active	Active	inactive	inactive	2990	Dose-dependent effect	inactive	inactive
O=C(CSc1ccc2cc(F)ccc2n1)NNC(=O)c1ccc(Cl)cc1	–	–	–	Active	–	–	–	–	–	–	–	Active	–	inactive
COc1ccc2nc(SCC(=O)NNC(=O)c3ccc(Cl)cc3)ccc2c1	–	–	–	inactive	–	–	–	–	–	–	–	Active	–	Active

From ChEMBL document CHEMBL4665784, “Discovery of an Inhibitor for the TREK-1 Channel Targeting an Intermediate Transition State of Channel Gating” (J Med Chem, 2020)
